Assays:
[1] = osmotic coefficient (dimensionless); mn = molality of the nth substance listed, in mol/kg; settings: 323.15 K, Liquid, Knauer Osmometer
[2] = mn = molality of the nth substance listed, in mol/kg; settings: 101 kPa, Liquid; for speed of sound: Sing-around technique in a fixed-path interferometer; for mass density: Vibrating tube method

CCCCn1cc[n+](C)c1.O=S(=O)([O-])C(F)(F)F [1-butyl-3-methylimidazolium trifluoromethanesulfonate] + CC(C)O
[1]
Settings | osmotic coefficient
m1 = 0.0255 | 0.991
m1 = 0.0473 | 0.911
m1 = 0.1132 | 0.844
m1 = 0.1803 | 0.765
m1 = 0.2949 | 0.686
m1 = 0.398 | 0.624
m1 = 0.5052 | 0.588
m1 = 0.8092 | 0.518
m1 = 1.205 | 0.461
m1 = 1.615 | 0.412
m1 = 2.031 | 0.391
m1 = 2.42 | 0.381
m1 = 2.829 | 0.366
m1 = 3.326 | 0.356

[2]
Settings | mass density, 293.15 K [kg/m3] | mass density, 308.15 K [kg/m3] | mass density, 323.15 K [kg/m3] | speed of sound, 293.15 K [m/s] | speed of sound, 308.15 K [m/s] | speed of sound, 323.15 K [m/s]
m1 = 0.049 | 789.81 | 777.07 | 763.51 | 1158.3 | 1106.4 | 1053.4
m1 = 0.1 | 794.52 | 781.8 | 768.29 | 1159.5 | 1108 | 1055.5
m1 = 0.152 | 799.18 | 786.48 | 772.99 | 1160.9 | 1109.6 | 1057.4
m1 = 0.207 | 804.09 | 791.39 | 777.93 | 1162.6 | 1111.2 | 1059.3
m1 = 0.254 | 808.1 | 795.41 | 781.98 | 1163.3 | 1112.5 | 1060.8
m1 = 0.51 | 828.98 | 816.33 | 803.01 | 1168.6 | 1119.1 | 1068.8
m1 = 0.754 | 847.24 | 834.61 | 821.37 | 1173.2 | 1124.8 | 1075.6
m1 = 1.006 | 864.73 | 852.1 | 838.92 | 1178.4 | 1130.5 | 1082.3
m1 = 1.525 | 896.77 | 884.17 | 871.1 | 1188.1 | 1142 | 1095.6
m1 = 1.758 | 910.13 | 897.53 | 884.5 | 1192.5 | 1147 | 1101.3
m1 = 2.05 | 925.34 | 912.77 | 899.8 | 1197.6 | 1153.1 | 1108.2
m1 = 2.526 | 947.75 | 935.19 | 922.28 | 1206 | 1162.5 | 1118.6
m1 = 3.011 | 967.97 | 955.42 | 942.57 | 1214.3 | 1171.5 | 1128.5

CCCCn1cc[n+](C)c1.O=S(=O)([O-])C(F)(F)F [1-butyl-3-methylimidazolium trifluoromethanesulfonate] + CCC(C)O
[1]
Settings | osmotic coefficient
m1 = 0.0481 | 0.914
m1 = 0.0784 | 0.806
m1 = 0.1008 | 0.771
m1 = 0.2021 | 0.657
m1 = 0.2917 | 0.568
m1 = 0.3846 | 0.507
m1 = 0.485 | 0.472
m1 = 0.7679 | 0.428
m1 = 1.126 | 0.379
m1 = 1.523 | 0.334
m1 = 1.909 | 0.318
m1 = 2.282 | 0.31
m1 = 2.574 | 0.296
m1 = 2.994 | 0.279
m1 = 3.448 | 0.275

[2]
Settings | mass density, 293.15 K [kg/m3] | mass density, 308.15 K [kg/m3] | mass density, 323.15 K [kg/m3] | speed of sound, 293.15 K [m/s] | speed of sound, 308.15 K [m/s] | speed of sound, 323.15 K [m/s]
m1 = 0.098 | 815.49 | 802.94 | 789.53 | 1231 | 1177.6 | 1122.9
m1 = 0.149 | 819.88 | 807.37 | 794.01 | 1231.4 | 1178.3 | 1124.1
m1 = 0.201 | 824.3 | 811.78 | 798.46 | 1231.9 | 1179.2 | 1125.5
m1 = 0.249 | 828.21 | 815.73 | 802.45 | 1232 | 1179.6 | 1126.3
m1 = 0.498 | 847.84 | 835.4 | 822.26 | 1233.7 | 1182.7 | 1130.8
m1 = 1.002 | 882.87 | 870.47 | 857.52 | 1238.2 | 1189.5 | 1140.3
m1 = 1.239 | 897.53 | 885.16 | 872.26 | 1240.2 | 1192.4 | 1144
m1 = 1.522 | 913.81 | 901.44 | 888.61 | 1243.1 | 1196.2 | 1148.8
m1 = 1.763 | 926.62 | 914.26 | 901.49 | 1245.6 | 1199.4 | 1152.7
m1 = 2.497 | 961.11 | 948.77 | 936.11 | 1253.6 | 1209.2 | 1164.3
m1 = 2.935 | 978.86 | 966.54 | 953.94 | 1258.2 | 1214.5 | 1170.8

CCCCn1cc[n+](C)c1.O=S(=O)([O-])C(F)(F)F [1-butyl-3-methylimidazolium trifluoromethanesulfonate] + CCCCCO
[1]
Settings | osmotic coefficient
m1 = 0.0505 | 0.619
m1 = 0.0795 | 0.565
m1 = 0.1004 | 0.529
m1 = 0.2014 | 0.436
m1 = 0.3014 | 0.402
m1 = 0.406 | 0.365
m1 = 0.5071 | 0.344
m1 = 0.8272 | 0.299
m1 = 1.233 | 0.242
m1 = 1.649 | 0.224
m1 = 2.044 | 0.202
m1 = 2.446 | 0.183
m1 = 2.837 | 0.184
m1 = 3.34 | 0.184

[2]
Settings | mass density, 293.15 K [kg/m3] | mass density, 308.15 K [kg/m3] | mass density, 323.15 K [kg/m3] | speed of sound, 293.15 K [m/s] | speed of sound, 308.15 K [m/s] | speed of sound, 323.15 K [m/s]
m1 = 0.048 | 818.89 | 807.86 | 796.5 | 1292.6 | 1242.7 | 1193.2
m1 = 0.103 | 823.68 | 812.65 | 801.3 | 1292.3 | 1242.7 | 1193.6
m1 = 0.203 | 832.08 | 821.04 | 809.68 | 1291.9 | 1242.7 | 1194.1
m1 = 0.246 | 835.58 | 824.54 | 813.18 | 1291.4 | 1242.6 | 1194.1
m1 = 0.746 | 872.74 | 861.58 | 850.17 | 1289 | 1242 | 1195.6
m1 = 1.014 | 890.36 | 879.13 | 867.69 | 1288.5 | 1242.2 | 1196.7
m1 = 1.517 | 919.71 | 908.4 | 896.89 | 1288.2 | 1243.4 | 1199.3
m1 = 1.778 | 933.35 | 921.98 | 910.45 | 1288.6 | 1244.5 | 1201
m1 = 2.024 | 945.34 | 933.93 | 922.38 | 1289.4 | 1245.7 | 1202.7
m1 = 2.477 | 965.54 | 954.08 | 942.49 | 1290.7 | 1248.1 | 1205.9
m1 = 2.963 | 984.77 | 973.25 | 961.63 | 1292.8 | 1250.8 | 1209.4

Reference: the NIST ThermoML archive (doi:10.1016/j.jct.2013.01.032)
